# From patent publication US11554162B2, “Pharmaceutical or food supplement preparation based on alpha-lactalbumin” (KOLFARMA S.R.L., priority 2018, dated 2023)
# How the values were obtained:
# [1] = in vivo; cited from earlier work
# PTZ-induced seizures = assay: Anticonvulsant action in the pentylenetetrazol (PTZ) seizure model after 15-day oral pretreatment; assay type: in vivo, C57BL/6 male mice
# Procedure: The anticonvulsant action of a preparation according to the invention, consisting of alpha-lactalbumin and sodium butyrate, was evaluated in comparison with that of the single components alpha-lactalbumin and sodium butyrate in the above-mentioned animal model, using the convulsant agent pentylenetetrazol
# The experiment was carried out on groups of 10 C57BL/6 male mice (Charles River Italy) for each tested dose (control groups of 10 C57BL/6 male mice were also used).
# The animals of all groups were subcutaneously administered pentylenetetrazol (65 mg/kg) at the end of a 15-day pretreatment with sodium butyrate, alpha-lactalbumin, alpha-lactalbumin+sodium butyrate or vehicle, i.e. water (control), respectively.
# This pretreatment was carried out by oral administration of a solution of either one of sodium butyrate, alpha-lactalbumin, alpha-lactalbumin+sodium butyrate in the vehicle, consisting of water, and of the vehicle (water) alone.
# Firstly, three groups of 10 mice were orally administered 30 mg/day, 100 mg/day and 250 mg/day of sodium butyrate respectively, in the form of an aqueous solution contained in the bottle of the cage, for 15 days. The bottle of the cage of the control group (10 mice) only contained water.
# On the 16th day, the animals of the four groups were subcutaneously administered 65 mg/kg of pentylenetetrazol.
# Then, three groups of 10 mice were orally administered 125 mg/day, 250 mg/day and 375 mg/day of alpha-lactalbumin respectively, in the form of an aqueous solution contained in the bottle of the cage, for 15 days. The bottle of the cage of the control group (10 mice) only contained water.
# On the 16th day, the animals of the four groups were subcutaneously administered 65 mg/kg of pentylenetetrazol (PTZ).
# Finally, a first group of 10 mice was orally administered 125 mg alpha-lactalbumin+100 mg sodium butyrate per day, a second group of 10 mice was orally administered 250 mg alpha-lactalbumin+100 mg sodium butyrate per day, a third group of 10 mice was orally administered 375 mg alpha-lactalbumin+100 mg sodium butyrate per day, in the form of an aqueous solution contained in the bottle of the cage, for 15 days. The bottle of the cage of the control group (10 mice) only contained water.
# audiogenic seizures = assay: Protection against seizures in experimental models of epilepsy (audiogenic seizures in genetically epilepsy-prone-9 rats); assay type: in vivo; settings: different experimental models of epilepsy; no increase on continuing up to 12 days; not dose dependent
# Excerpt: Also the results obtained both in experimental models and in clinical trials confirm the need of repeated administrations for several days.
# [2] = cited from earlier work
# [3] = system: seizures induced by acoustic stimulation; settings: after three weeks of treatment; cited from earlier work
compound,measurement,setting,value
CCCC(=O)O [butyric acid],cerebral uptake,[1],~0.006%
"CCCC(=O)[O-].[Na+] [sodium butyrate, reference compound]",animals that experienced seizures induced by pentylenetetrazol,"PTZ-induced seizures; sodium butyrate 30, 100 or 250 mg/day oral in drinking water for 15 days, PTZ 65 mg/kg s.c. on day 16, no significant difference from control",100%
same,activity towards the seizures induced by pentylenetetrazol,PTZ-induced seizures; sodium butyrate alone,devoid of any activity
alpha-lactalbumin,effect on percentage of mice with PTZ-induced seizures,"PTZ-induced seizures; alpha-lactalbumin 125 mg/day alone, oral for 15 days",does not significantly decrease
same,animals showing PTZ-induced seizures,"PTZ-induced seizures; alpha-lactalbumin 375 mg/day oral for 15 days, PTZ 65 mg/kg s.c. on day 16",less than 40%
same,course of percentage of animals with PTZ-induced seizures over dose,"PTZ-induced seizures; alpha-lactalbumin 125, 250, 375 mg/day oral for 15 days",decrease in a dose-dependent fashion
same,days of repeated administrations until protective action against seizures occurs,audiogenic seizures,at least 6 days
same,time after oral administration to demolition into medium-small peptides in the stomach,[2],15 min
same,duration of protective effect against seizures after suspension of treatment,[3],at least one month
